For this test, the target named is T1, KRAS G12C 1-169, his-tagged protein, GDP-loaded (Homo sapiens, UniProt P01116, G12C).
T1 construct: KRAS G12C 1-169, his-tagged protein, GDP-loaded
In words: Biochemical assay: covalent modification of KRAS G12C measured by mass spectrometry (RapidFire/TOF or Q-Exactive). To be noted: covalent binding to KRAS G12C. An outline of the steps:
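Covalent adduct formation read by intact-mass spectrometry (TOF or Q Exactive Plus, charge envelopes deconvoluted into modified and unmodified species) after formic acid quench. Reactions contained 2 μM GDP-bound KRAS G12C 1-169 (his-tag) in Hepes/NaCl/MgCl2 buffer plus 10, 30 or 100 μM final compound, held 30 min, 2 h or 24 h at room temperature.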

The structures appear in SMILES notation.

The results in this text go back to patent US10829458B2 (Araxes Pharma LLC, priority 2015, dated 2020).

On to `C=CC(=O)N1CCN(c2nc(COCc3ncccc3F)nc3c(F)c(-c4c(O)cccc4F)c(Cl)cc23)CC1` [Example I-210, 1-(4-(6-chloro-8-fluoro-7-(2-fluoro-6-hydroxyphenyl)-2-(((3-fluoro-pyridin-2-yl)methoxy)methyl)quinazolin-4-yl)piperazin-1-yl) prop-2-en-1-one], for which the Binding % entry (compounds of structure (I)) is reported as “+++ (+++ indicates binding activity greater than 90%)”.
With `O=C(/C=C/CN1CCOCC1)N1CCN(c2ncnc3c(F)c(-c4c(O)cccc4F)c(Cl)cc23)CC1` [II-1, (E)-1-(4-(6-chloro-8-fluoro-7-(2-fluoro-6-hydroxyphenyl)quinazolin-4-yl)piperazin-1-yl)-4-morpholinobut-2-en-1-one], the Binding % entry (compounds of structure (II)) is listed as “+ (+ indicates binding activity up to 50%)”.
Same read-out and setting: the entry for `O=C(/C=C/CN1CCC1)N1CCN(c2ncnc3c(F)c(-c4c(O)cccc4F)c(Cl)cc23)CC1` [II-2, (E)-4-(azetidin-1-yl)-1-(4-(6-chloro-8-fluoro-7-(2-fluoro-6-hydroxyphenyl)quinazolin-4-yl)piperazin-1-yl)but-2-en-1-one] is “+++ (+++ indicates binding activity of 75% or greater)”; for `C=CC(=O)N1CCN(c2ncnc3c(F)c(-c4c(O)ccc(F)c4F)c(Cl)cc23)CC1` [II-3, 1-(4-(6-chloro-7-(2,3-difluoro-6-hydroxyphenyl)-8-fluoroquinazolin-4-yl)piperazin-1-yl)prop-2-en-1-one] it is “+++ (+++ indicates binding activity of 75% or greater)”; for `C=CC(=O)N1CC2(CCN(c3ncnc4c(F)c(-c5c(O)cccc5F)c(Cl)cc34)C2)C1` [II-4, 1-(6-(6-chloro-8-fluoro-7-(2-fluoro-6-hydroxyphenyl)quinazolin-4-yl)-2,6-diazaspiro[3.4]octan-2-yl)prop-2-en-1-one] it is “+ (+ indicates binding activity up to 50%)”.
Consider `C=CC(=O)N1CCN(c2ncnc3cc(-c4c(F)cccc4C(F)F)c(Cl)cc23)CC1` [II-5, 1-(4-(6-chloro-7-(2-(difluoromethyl)-6-fluorophenyl)quinazolin-4-yl)piperazin-1-yl)prop-2-en-1-one], for which the Binding % result (compounds of structure (II)) is “+ (+ indicates binding activity up to 50%)”.
Take `C=CC(=O)N1CCN(c2ncnc3c(F)c(-c4c(F)cccc4OCc4cncn4C)c(Cl)cc23)CC1` [II-6, 1-(4-(6-chloro-8-fluoro-7-(2-fluoro-6-((1-methyl-1H-imidazol-5-yl)methoxy)phenyl)quinazolin-4-yl)piperazin-1-yl)prop-2-en-1-one]: the Binding % entry (compounds of structure (II)) is “++ (++ indicates binding activity greater than 50% and less than 75%)”.
Same read-out and setting: in the case of `C=CC(=O)N1CCCN(c2ncnc3c(F)c(-c4c(O)cccc4F)c(Cl)cc23)CC1` [II-7, 1-(4-(6-chloro-8-fluoro-7-(2-fluoro-6-hydroxyphenyl)quinazolin-4-yl)-1,4-diazepan-1-yl)prop-2-en-1-one] it was “+ (+ indicates binding activity up to 50%)”.
Consider `C=CC(=O)N1CCC2(C1)CN(c1ncnc3c(F)c(-c4c(O)cccc4F)c(Cl)cc13)C2` [II-8, 1-(2-(6-chloro-8-fluoro-7-(2-fluoro-6-hydroxyphenyl)quinazolin-4-yl)-2,6-diazaspiro[3.4]octan-6-yl)prop-2-en-1-one], for which the Binding % entry (compounds of structure (II)) was “+ (+ indicates binding activity up to 50%)”.
For `C=CC(=O)N1CCC(Nc2ncnc3c(F)c(-c4c(O)cccc4F)c(Cl)cc23)C1` (stereo not drawn) [II-9, 1-(3-((6-chloro-8-fluoro-7-(2-fluoro-6-hydroxyphenyl)quinazolin-4-yl)amino)pyrrolidin-1-yl)prop-2-en-1-one], the Binding % result (compounds of structure (II)) is “+ (+ indicates binding activity up to 50%)”.
The same measure, in the same setting: the entry for `C=CC(=O)N1CCN(c2ncnc3c(F)c(-c4c(F)cccc4OCc4cnc([N+](=O)[O-])n4C)c(Cl)cc23)CC1` [II-10, 1-(4-(6-chloro-8-fluoro-7-(2-fluoro-6-((1-methyl-2-nitro-1H-imidazol-5-yl)methoxy)phenyl)quinazolin-4-yl)piperazin-1-yl)prop-2-en-1-one] is “+++ (+++ indicates binding activity of 75% or greater)”; for `C=CC(=O)Nc1cccc(-c2ncnc3c(F)c(-c4c(O)cccc4F)c(Cl)cc23)c1` [II-11, N-(3-(6-chloro-8-fluoro-7-(2-fluoro-6-hydroxyphenyl)quinazolin-4-yl)phenyl)acrylamide] it is “+ (+ indicates binding activity up to 50%)”; for `C=CC(=O)Nc1cc(-c2ncnc3c(F)c(-c4c(O)cccc4F)c(Cl)cc23)ccn1` [II-12, N-(4-(6-chloro-8-fluoro-7-(2-fluoro-6-hydroxyphenyl)quinazolin-4-yl)pyridin-2-yl)acrylamide] it is “+ (+ indicates binding activity up to 50%)”.
On the same count and under the same terms, the entry for `C=CC(=O)Nc1ncc(-c2ncnc3c(F)c(-c4c(O)cccc4F)c(Cl)cc23)s1` [II-13, N-(5-(6-chloro-8-fluoro-7-(2-fluoro-6-hydroxyphenyl)quinazolin-4-yl)thiazol-2-yl)acrylamide] is “++ (++ indicates binding activity greater than 50% and less than 75%)”.
Take `C=CC(=O)N1C[C@H](C)N(c2ncnc3c(F)c(-c4c(O)cccc4F)c(Cl)cc23)C[C@H]1C` [III-1, 1-((2R,5S)-4-(6-chloro-8-fluoro-7-(2-fluoro-6-hydroxy-phenyl)quinazolin-4-yl)-2,5-dimethyl-piperazin-1-yl)prop-2-en-1-one]: the Binding % entry (compounds of structure (III)) is recorded as “++ (++ indicates activity from 50% to 90%)”.
Consider `C=CC(=O)N1C[C@H](C)N(c2ncnc3c(F)c(-c4c(F)cccc4OC)c(Cl)cc23)C[C@H]1C` [III-2, 1-((2R,5S)-4-(6-chloro-8-fluoro-7-(2-fluoro-6-methoxy-phenyl)quinazolin-4-yl)-2,5-dimethyl-piperazin-1-yl)prop-2-en-1-one], for which the Binding % entry (compounds of structure (III)) is given as “+ (+ indicates binding activity up to 50%)”.
On the same count and under the same terms, the entry for `C=CC(=O)N1CCN(c2ncnc3c(F)c(-c4c(C)ccc5cn[nH]c45)c(Cl)cc23)[C@@H](C)C1` [III-3, 1-((3S)-4-(6-chloro-8-fluoro-7-(6-methyl-1H-indazol-7-yl)quinazolin-4-yl)-3-methyl-piperazin-1-yl)prop-2-en-1-one] is “++ (++ indicates activity from 50% to 90%)”; for `C=CC(=O)N1CCN(c2ncnc3c(F)c(-c4c(O)cccc4F)c(Cl)cc23)CC1C` (stereo not drawn) [III-5, 1-(4-(6-chloro-8-fluoro-7-(2-fluoro-6-hydroxy-phenyl)quinazolin-4-yl)-2-methyl-piperazin-1-yl)prop-2-en-1-one] it is “++ (++ indicates activity from 50% to 90%)”.
Same read-out and setting: the entry for `C=CC(=O)N1CCN(c2ncnc3c(F)c(-c4c(O)cccc4F)c(Cl)cc23)CC1(C)C` [III-7, 1-(4-(6-chloro-8-fluoro-7-(2-fluoro-6-hydroxy-phenyl)quinazolin-4-yl)-2,2-dimethyl-piperazin-1-yl)prop-2-en-1-one] is “+ (+ indicates binding activity up to 50%)”; for `C=CC(=O)N1CCN(c2ncnc3c(F)c(-c4c(O)cccc4F)c(Cl)cc23)CC1CO` (stereo not drawn) [III-8, 1-(4-(6-chloro-8-fluoro-7-(2-fluoro-6-hydroxy-phenyl)quinazolin-4-yl)-2-(hydroxy-methyl)piperazin-1-yl)prop-2-en-1-one] it is “++ (++ indicates activity from 50% to 90%)”; for `C=CC(=O)N1C(C)CN(c2ncnc3c(F)c(-c4c(O)cccc4F)c(Cl)cc23)CC1C` (stereo not drawn) [III-9, 1-(4-(6-chloro-8-fluoro-7-(2-fluoro-6-hydroxy-phenyl)quinazolin-4-yl)-2,6-dimethyl-piperazin-1-yl)prop-2-en-1-one] it is “++ (++ indicates activity from 50% to 90%)”.
